# Source: US20060069132A1, “Azolecarboxamide herbicides” (priority 2004, published 2006)
# Tests used:
# [1] = tested on: small flower umbrella sedge; assay: Test B flooded paddy test; format: in vivo, Cyperus difformis; conditions: 1000 g ai/ha, scale 0 to 100 (0 no effect, 100 complete control)
# Method in brief: (§1)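 Plants grow to 1- to 4-leaf stage (2–18 cm) for postemergence spraying, or to 2-leaf stage for the paddy test. Formulated compound is applied. Greenhouse holding lasts 13–15 days. Response is scored visually relative to controls, 0 no effect to 100 complete control; a dash means no result.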
# velvetleaf = assay: Test B pre-/postemergence herbicide test; format: in vivo, Abutilon theophrasti
# Method in brief: (§2)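 Formulation: non-phytotoxic solvent mix with surfactant. Timing: preemergence on seed and postemergence on 2–18 cm plants, applied concurrently. Readout after 13–15 d greenhouse: visual 0–100 control rating against controls.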
# wild oat = assay: Test B postemergence herbicide test; format: in vivo, Avena fatua
# Method in brief: (§3)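 Formulated test chemicals went onto postemergence plants measuring 2 to 18 cm, at one to four leaves. For the paddy assay, species had reached two leaves. Scoring took place 13–15 days later by eye, relative to untreated plants, using 0 for no effect up to 100 for full control.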
# giant foxtail = assay: Test B pre-/postemergence herbicide test; format: in vivo, Setaria faberi
# Method in brief: as §2
# corn = assay: Test B pre-/postemergence herbicide test; format: in vivo, Zea mays
# Method in brief: as §2
# cocklebur = assay: Test B pre-/postemergence herbicide test; format: in vivo, Xanthium strumarium
# Method in brief: (§4)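 Species tested were Echinochloa crus-galli, Ipomoea coccinea, Xanthium strumarium and Oryza sativa, treated both before emergence and at the 1- to 4-leaf stage; rice and barnyardgrass were also tested under flooding at 2 leaves. Greenhouse incubation lasted 13–15 days before visual 0–100 scoring.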
# pigweed = assay: Test B pre-/postemergence herbicide test; format: in vivo, Amaranthus retroflexus
# Method in brief: as §2
# ducksalad = assay: Test B flooded paddy test; format: in vivo, Heteranthera limosa; conditions: 1000 g ai/ha, scale 0 to 100 (0 no effect, 100 complete control)
# Method in brief: as §1
# barnyardgrass [2] = assay: Test B pre-/postemergence herbicide test; format: in vivo, Echinochloa crus-galli
# Method in brief: as §4
# Surinam grass = assay: Test B pre-/postemergence herbicide test; format: in vivo, Urochloa decumbens
# Method in brief: as §2
# lambsquarters = assay: Test B pre-/postemergence herbicide test; format: in vivo, Chenopodium album
# Method in brief: as §2
# rice [3] = assay: Test B pre-/postemergence herbicide test; format: in vivo, Oryza sativa; conditions: preemergence; for Rice plant response rating (0 to 100 scale): 125 g ai/ha; for Plant response rating, Rice: 500 g ai/ha
# Source text: Seeds selected from barnyardgrass (Echinochloa crus-galli (L.) Beauv.), Surinam grass (Urochloa decumbens (Staph) R. D. Webster, previously named Brachiaria decumbens Stapf), cocklebur (Xanthium strumarium L.), corn (Zea mays L.), large crabgrass (Digitaria sanguinalis (L.) Scop.), giant foxtail (Setaria faberi Herim.), lambsquarters (Chenopodium album L.), morningglory (Ipomoea coccinea L.), pigweed (Amaranthus retroflexus L.), rice (Oryza sativa L.) and velvetleaf (Abutilon theophrasti Medik.) were planted and treated preemergence with test chemicals formulated in a non-phytotoxic solvent mixture which included a surfactant.
# At the same time, plants selected from these crop and weed species and also blackgrass (Alopecurus myosuroides Huds.), wheat (Triticum aestivum L.) and wild oat (Avena fatua L.) were treated with postemergence applications of test chemicals formulated in the same manner. Plants ranged in height from 2 to 18 cm (1- to 4-leaf stage) for postemergence treatments. Plant species in the flooded paddy test consisted of rice (Oryza sativa L.), small flower umbrella sedge (Cyperus difformis L.), ducksalad (Heteranthera limosa (Sw.) Willd.) and barnyardgrass (Echinochloa crus-galli (L.) Beauv.) grown to the 2-leaf stage for testing. Treated plants and controls were maintained in a greenhouse for 13 to 15 days, after which time all species were compared to controls and visually evaluated. Plant response ratings, summarized in Table B, are based on a scale of 0 to 100 where 0 is no effect and 100 is complete control. A dash (-) response means no test result.
# wheat = assay: Test B postemergence herbicide test; format: in vivo, Triticum aestivum; set-up: key to Wheat plant response rating: 0 = no effect, 100 = complete control
# Method in brief: as §3
# large crabgrass = assay: Test B pre-/postemergence herbicide test; format: in vivo, Digitaria sanguinalis
# Method in brief: as §2
# morningglory = assay: Test B pre-/postemergence herbicide test; format: in vivo, Ipomoea coccinea
# Method in brief: as §4
# rice [4] = assay: Test B flooded paddy test; format: in vivo, Oryza sativa; conditions: 1000 g ai/ha, scale 0 to 100 (0 no effect, 100 complete control)
# Method in brief: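 Scale 0–100: zero equals no visible effect, 100 complete control, judged by eye relative to controls. Timing: 13 to 15 days in greenhouse post-treatment. Growth stage at spraying: two leaves (paddy) or one to four leaves, 2–18 cm (postemergence).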
# blackgrass = assay: Test B postemergence herbicide test; format: in vivo, Alopecurus myosuroides
# Method in brief: as §1
# barnyardgrass [5] = assay: Test B flooded paddy test; format: in vivo, Echinochloa crus-galli; conditions: 1000 g ai/ha, scale 0 to 100 (0 no effect, 100 complete control)
# Method in brief: as §1
# [6] = 125 g ai/ha; 0 = no effect, 100 = complete control; preemergence
# [7] = 500 g ai/ha; visual rating 0-100, 0 no effect, 100 complete control; preemergence
# [8] = postemergence, 125 g ai/ha; visual rating, scale 0 (no effect) to 100 (complete control)
# [9] = postemergence, 500 g ai/ha; visual rating, scale 0 (no effect) to 100 (complete control)
# [10] = 0 = no effect, 100 = complete control
# [11] = 125 g ai/ha; visual rating, scale 0 (no effect) to 100 (complete control); postemergence
# [12] = 500 g ai/ha; visual rating, 0 = no effect, 100 = complete control; preemergence
# [13] = postemergence, 500 g ai/ha; scale 0 to 100, 0 is no effect, 100 is complete control
smiles,measurement,setting,value
CCNC(=O)c1cccc(NC(=O)c2nn(C(C)(C)C)cc2C(F)(F)F)c1 [Compound 170],"Sedge, Umbrella plant response rating","[1]; visual rating, 13 to 15 days",20
same,Velvetleaf plant response rating (0 to 100 scale),velvetleaf; [6],0
same,"Plant response rating, Velvetleaf",velvetleaf; [7],20
same,Velvetleaf plant response rating,velvetleaf; [8],10
same,Velvetleaf plant response rating,velvetleaf; [9],20
same,"Oat, Wild plant response rating",wild oat; [8],10
same,"Oat, Wild plant response rating",wild oat; [9],10
same,"Foxtail, Giant plant response rating (0 to 100 scale)",giant foxtail; [6],0
same,"Plant response rating, Foxtail, Giant",giant foxtail; [7],20
same,"Foxtail, Giant plant response rating",giant foxtail; [8],0
same,"Foxtail, Giant plant response rating",giant foxtail; [9],10
same,Corn plant response rating (0 to 100 scale),corn; [6],0
same,"Plant response rating, Corn",corn; [7],0
same,Corn plant response rating,corn; [8],0
same,Corn plant response rating,corn; [9],10
same,Cocklebur plant response rating (0 to 100 scale),cocklebur; [6],0
same,"Plant response rating, Cocklebur",cocklebur; [7],0
same,Cocklebur plant response rating,cocklebur; [8],0
same,Cocklebur plant response rating,cocklebur; [9],0
same,Pigweed plant response rating (0 to 100 scale),pigweed; [6],0
same,"Plant response rating, Pigweed",pigweed; [7],90
same,Pigweed plant response rating,pigweed; [8],30
same,Pigweed plant response rating,pigweed; [9],50
same,Ducksalad plant response rating,"ducksalad; visual rating, 13 to 15 days",0
same,Barnyardgrass plant response rating (0 to 100 scale),barnyardgrass [2]; [6],0
same,"Plant response rating, Barnyardgrass",barnyardgrass [2]; [7],30
same,Barnyardgrass plant response rating,barnyardgrass [2]; [8],0
same,Barnyardgrass plant response rating,barnyardgrass [2]; [9],10
same,Surinam Grass plant response rating (0 to 100 scale),Surinam grass; [6],0
same,"Plant response rating, Surinam Grass",Surinam grass; [7],30
same,Surinam Grass plant response rating,Surinam grass; [8],10
same,Surinam Grass plant response rating,Surinam grass; [9],10
same,Lambsquarters plant response rating (0 to 100 scale),lambsquarters; [6],0
same,"Plant response rating, Lambsquarters",lambsquarters; [7],80
same,Lambsquarters plant response rating,lambsquarters; [8],60
same,Lambsquarters plant response rating,lambsquarters; [9],70
same,Rice plant response rating (0 to 100 scale),rice [3]; [10],0
same,"Plant response rating, Rice","rice [3]; visual rating 0-100, 0 no effect, 100 complete control",0
same,Wheat plant response rating,wheat; [8],0
same,Wheat plant response rating,wheat; [9],0
same,"Crabgrass, Large plant response rating (0 to 100 scale)",large crabgrass; [6],20
same,"Plant response rating, Crabgrass, Large",large crabgrass; [7],80
same,"Crabgrass, Large plant response rating",large crabgrass; [8],10
same,"Crabgrass, Large plant response rating",large crabgrass; [9],10
same,Morningglory plant response rating (0 to 100 scale),morningglory; [6],0
same,"Plant response rating, Morningglory",morningglory; [7],10
same,Morningglory plant response rating,morningglory; [8],30
same,Morningglory plant response rating,morningglory; [9],80
same,Rice plant response rating,"rice [4]; visual rating, 13 to 15 days",20
same,Blackgrass plant response rating,blackgrass; [8],0
same,Blackgrass plant response rating,blackgrass; [9],0
same,Barnyardgrass plant response rating,"barnyardgrass [5]; visual rating, 13 to 15 days",10
CCc1nn(C(C)(C)C)cc1C(=O)Nc1cccc(C(=O)N(C)C)n1 [Compound 292],"Sedge, Umbrella plant response rating",[1],60
same,Velvetleaf plant response rating,velvetleaf; [11],10
same,"Plant response rating, Velvetleaf",velvetleaf; [12],70
same,Velvetleaf plant response rating,velvetleaf; [13],10
same,"Oat, Wild plant response rating",wild oat; [11],10
same,"Oat, Wild plant response rating",wild oat; [13],40
same,"Foxtail, Giant plant response rating (0 to 100 scale)",giant foxtail; [6],0
same,"Foxtail, Giant plant response rating",giant foxtail; [11],0
same,"Plant response rating, Foxtail, Giant",giant foxtail; [12],70
same,"Foxtail, Giant plant response rating",giant foxtail; [13],20
same,Corn plant response rating (0 to 100 scale),corn; [6],0
same,Corn plant response rating,corn; [11],10
same,"Plant response rating, Corn",corn; [12],80
same,Corn plant response rating,corn; [13],20
same,Cocklebur plant response rating (0 to 100 scale),cocklebur; [6],0
same,Cocklebur plant response rating,cocklebur; [11],0
same,"Plant response rating, Cocklebur",cocklebur; [12],40
same,Cocklebur plant response rating,cocklebur; [13],10
same,Pigweed plant response rating (0 to 100 scale),pigweed; [6],40
same,Pigweed plant response rating,pigweed; [11],20
same,"Plant response rating, Pigweed",pigweed; [12],100
same,Pigweed plant response rating,pigweed; [13],30
same,Ducksalad plant response rating,ducksalad,0
same,Barnyardgrass plant response rating (0 to 100 scale),barnyardgrass [2]; [6],10
same,Barnyardgrass plant response rating,barnyardgrass [2]; [11],0
same,"Plant response rating, Barnyardgrass",barnyardgrass [2]; [12],90
same,Barnyardgrass plant response rating,barnyardgrass [2]; [13],0
same,Surinam Grass plant response rating (0 to 100 scale),Surinam grass; [6],20
same,Surinam Grass plant response rating,Surinam grass; [11],0
same,"Plant response rating, Surinam Grass",Surinam grass; [12],100
same,Surinam Grass plant response rating,Surinam grass; [13],20
same,Lambsquarters plant response rating (0 to 100 scale),lambsquarters; [6],70
same,Lambsquarters plant response rating,lambsquarters; [11],30
same,"Plant response rating, Lambsquarters",lambsquarters; [12],100
same,Lambsquarters plant response rating,lambsquarters; [13],70
same,Rice plant response rating (0 to 100 scale),rice [3]; [10],0
same,"Plant response rating, Rice","rice [3]; visual rating, 0 = no effect, 100 = complete control",90
same,Wheat plant response rating,wheat; [11],0
same,Wheat plant response rating,wheat; [13],20
same,"Crabgrass, Large plant response rating (0 to 100 scale)",large crabgrass; [6],80
same,"Crabgrass, Large plant response rating",large crabgrass; [11],0
same,"Plant response rating, Crabgrass, Large",large crabgrass; [12],100
same,"Crabgrass, Large plant response rating",large crabgrass; [13],10
same,Morningglory plant response rating (0 to 100 scale),morningglory; [6],0
same,Morningglory plant response rating,morningglory; [11],0
same,"Plant response rating, Morningglory",morningglory; [12],30
same,Morningglory plant response rating,morningglory; [13],20
same,Rice plant response rating,rice [4],30
same,Blackgrass plant response rating,blackgrass; [11],10
same,Blackgrass plant response rating,blackgrass; [13],20
same,Barnyardgrass plant response rating,barnyardgrass [5],20
